Data on one molecule can be found in PMC5522996, “Big conductance calcium‐activated potassium channel openers control spasticity without sedation” (British Journal of Pharmacology, 2017).

The data set in a line: Phase I pharmacokinetics in healthy humans. The format is in vivo, human. As to the method: The stability of compounds when subjected to hepatic and plasma degradation was assessed in vitro by Inpharmatica, Cambridge, UK. Compounds (1 μM) were incubated with either pooled mouse liver microsomes (0.1 mg protein mL^−1) or pooled mouse plasma at 37°C for 0, 5, 10, 20 and 40 min before termination with acetonitrile containing warfarin as an analytical internal standard. Samples were centrifuged, and the resultant supernatant analysed for parent compound. The mass responses at baseline were taken as the 100% reference values against which the disappearance of the compound was measured. The natural log of the % remaining values was used to generate linear plots of disappearance of the compounds. Half‐life values were calculated from the slope of these plots. Hepatocyte metabolism was assessed by Cyprotex, Macclesfield, and 10 μM VSN16R was incubated with primary mouse, rat, monkey (Macaque) and human hepatocytes for 1 h, and the presence of metabolites was assessed using liquid […] mass spectroscopy. The stability of VSN16R was assessed in vivo by Inpharmatica, Cyprotex and Charles Rivers, Cambridge. Blood (plasma) samples were obtained prior to and 5 min to 24 h after drug administration of 2–5 mg·kg^−1 i.v. or 5 mg·kg^−1 p.o. VSN16R into outbred mice and rats (n = 3 per time point). In addition, plasma, brain and spinal cord samples were obtained from ABH with spastic EAE. Immediately after blood collection, the brain and spinal cord were removed and then stored at −20°C prior to assay. Tissue samples were weighed, homogenized and centrifuged, and the lysates generated. Brain lysates and plasma were assayed by LC–MS methods by Inpharmatica/Charles Rivers, Cambridge, UK. This was also performed using a Waters Xevo TQ or API4000, AB Sciex mass spectrometer using spiked samples as standards. PK Solutions Software (Summit Research Services, Montrose, CO, USA), AB Sciex Analyst software combined with Thermo Fisher Scientific Watson LIMS processing and reporting software or WinNonLin pharmacokinetic or PK solutions 2.0 software (Summit Research Services, Montrose CO, USA) were used to produce PK parameters. Data are expressed as mean ± SEM. The detection limit of VSN16R was 2 ng·mL^−1 in plasma and brain and 14 ng·mL^−1 in spinal cords.

Where only a bound is given, the exact number is not on record here.

In the case of `C[C@H](CO)NC(=O)c1cccc(/C=C\CCCC(=O)N(C)C)c1` [VSN16R], where the note is “200 mg p.o., fed within 0.5 h of dosing”, the “Effect of feeding on pharmacokinetics” value was “delayed the time of the Cmax (Tmax) and reduced Cmax”. For the same molecule, where the note is “male, human, plasma, oral, twice daily dosing of VSN16R, read-out: Steady‐state plasma levels”, the concentration at 1 week is > 100 nM. This molecule also displayed a bioavailability (male, human, plasma, po, 25 mg p.o.) of 100%. The molecule also came in with a Terminal elimination (over the dose range studied, 25–800 mg) of 3.4 to 4.9 h.
